Measured values: US10047102B2, “Pyridyl-triazabicycles” (Hoffmann-La Roche Inc., priority 2014, dated 2018)
pIC50: −log10 of the molar value.

Target: T1, BACE1 (Homo sapiens, UniProt P56817)
T1 construct: endogenous in cells; host or cells: HEK293 APP cells
Experiment: Cellular Aβ-lowering assay (Abeta 40 AlphaLISA, HEK293 APP cells)
Type: cell-based
Conditions: Aβ 40 in culture supernatant by AlphaLISA, 18-20 hrs incubation at 37° C., 1% DMSO
Procedure: The compounds were investigated in accordance with the test given hereinafter.
The Abeta 40 AlphaLISA Assay can be used. The HEK293 APP cells were seeded in 96 well Microtiter plates in cell culture medium (Iscove's, plus 10% (v/v) fetal bovine serum, penicillin/streptomycin) to about 80% confluency and the compounds were added at a 3× concentration in ⅓ volume of culture medium (final DMSO concentration was kept at 1% v/v). After 18-20 hrs incubation at 37° C. and 5% CO2 in a humidified incubator, the culture supernatants were harvested for the determination of Aβ 40 concentrations using Perkin-Elmer Human Amyloid beta 1-40 (high specificity) Kit (Cat# AL275C).
In a Perkin-Elmer White Optiplate-384 (Cat# 6007290), 2 ul culture supernatants were combined with 2 μl of a 10× AlphaLISA Anti-hAβAcceptor beads+Biotinylated Antibody Anti-Aβ 1-40 Mix (50 μg/mL/5 nM). After 1 hour room temperature incubation, 16 μl of a 1.25× preparation of Streptavidin (SA) Donor beads (25 μg/mL) were added and incubated for 30 minutes in the Dark. Light Emission at 615 nm was then recorded using EnVision-Alpha Reader. Levels of Aβ 40 in the culture supernatants were calculated as percentage of maximum signal (cells treated with 1% DMSO without inhibitor). The IC50 values were calculated using the Excel XLfit software.

T1 sequence (P56817 46-501): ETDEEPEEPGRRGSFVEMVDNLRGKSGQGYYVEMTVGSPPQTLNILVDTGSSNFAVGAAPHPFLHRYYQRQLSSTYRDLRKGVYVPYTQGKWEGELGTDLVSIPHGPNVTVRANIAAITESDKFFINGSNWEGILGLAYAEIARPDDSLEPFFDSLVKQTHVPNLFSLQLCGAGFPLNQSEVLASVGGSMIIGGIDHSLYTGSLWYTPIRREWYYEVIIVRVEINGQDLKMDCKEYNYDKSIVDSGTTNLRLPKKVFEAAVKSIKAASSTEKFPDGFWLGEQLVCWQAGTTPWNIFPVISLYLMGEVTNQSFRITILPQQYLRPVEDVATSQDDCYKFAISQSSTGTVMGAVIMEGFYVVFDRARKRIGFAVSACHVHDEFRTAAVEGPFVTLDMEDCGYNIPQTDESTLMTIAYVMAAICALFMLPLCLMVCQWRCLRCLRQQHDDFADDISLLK

| pIC50 | Compound |
| --- | --- |
| 7.11 | N#Cc1ccc(C(=O)Nc2ccc(F)c([C@]3(C(F)F)C[S@]4(=O)=NCCCCN4C(N)=N3)n2)nc1 [Example 6, N-[6-[(1S,10S)-8-Amino-10-(difluoromethyl)-1-oxo-1λ^6-thia-2,7,9-triazabicyclo[5.4.0]undeca-1,8-dien-10-yl]-5-fluoropyridin-2-yl]-5-cyanopyridine-2-carboxamide] |
| 6.83 | N#Cc1ccc(C(=O)Nc2ccc(F)c([C@]3(C(F)F)C[S@@]4(=O)=NCCCCN4C(N)=N3)n2)nc1 [Example 7, N-[6-[(1R,10S)-8-Amino-10-(difluoromethyl)-1-oxo-1λ^6-thia-2,7,9-triazabicyclo[5.4.0]undeca-1,8-dien-10-yl]-5-fluoropyridin-2-yl]-5-cyanopyridine-2-carboxamide] |
